Data from patent publication US12527746B2, “Peptide/particle delivery systems” (The Johns Hopkins University, priority 2009, dated 2026).
Non-standard residues stand in square brackets, D forms with d. No end group written: not given here. Abu = CC[C@H](N)C(=O)O

Legend:
endothelial cells [1] = assay: Endothelial cell proliferation, peptides encapsulated in polymeric particles vs free peptides; type: cell-based; conditions: encapsulated within polymeric particles compared to unencapsulated
From the text: Changes to polymer structure, including small changes to the ends of the polymer only, can vary biophysical properties of these particles. These properties can be important to tune for effective in vivo peptide delivery. A small subset of the potential polymer library was screened to measure the effect of encapsulating the antiangiogenic peptides chemokinostatin-1 and pentastatin-1 within polymeric particles compared to unencapsulated, free peptides. […] An example of representative polymers encapsulating peptides is provided in Scheme 5.

[2] = test system: MDA-MB-231 tumor xenograft; assay: MDA-MB-231 breast cancer xenograft, orthotopic, i.p. peptide; set-up: species or system SCID mice; conditions: mouse, in vivo
From the text: BMC Cancer 2010; 10:29, and in a breast cancer xenograft model using MDA-MB-231 cells. Koskimaki J E, Karagiannis E D, Rosca E V, Vesuna F, Winnard P T, Jr., Raman V, et al. Peptides derived from type IV collagen, CXC chemokines, and thrombospondin-1 domain-containing proteins inhibit neovascularization and suppress tumor growth in MDA-MB-231 breast cancer xenografts. Neoplasia 2009; 11(12):1285-91.
Following orthotopic inoculation of SCID mice in the mammary fat pad area using 2×10^6 cells, tumors grew to approximately 100 mm^3 in 2 weeks; at that time 100 μL of peptide solution was injected i.p. once a day at peptide doses 10-20 mg/kg. PBS solution was injected as control. […] The microvessel density was determined by screening the immunohistologically stained CD31 sections. Inhibition of LEC migration in the ACEA migration assay also was determined (see FIG. 33B).

CNV laser mouse model = assay: CNV laser mouse model, intravitreous injection, choroidal flat mounts; type: in vivo, C57 BL/6 female mice; conditions: day 14
From the text: Referring now to FIG. 9 is shown in vivo 336 polymer nanoparticle/SP6001 DEAH peptide (“DEAH” disclosed as SEQ ID NO: 2484); Peptide-336 polymer nanoparticles were formulated as previously described and intravitreously injected to test in vivo efficacy. ACNV laser mouse model was used on C57 BL/6 female mice. The mice receive laser eye treatments on day zero, followed by the intravitreous injections. Mice are then perfused with fluorescein labeled dextran on day 14 and choroidal flat mounts (bottom) were analyzed via fluorescence microscopy.
Referring now to FIG. 49 in shown the in vivo effects of microparticle formulations in both the CNV and rho/VEGF model over time. DEAH (SP6001)-336 PBAE nanoparticle formulation made as described previously (“DEAH” disclosed as SEQ ID NO: 2484). […] (Middle) and (Bottom) A genetic model of wet form of age-related macular degeneration in mice used to test long-term effect of microparticles. […] While PLGA is used to form the microparticles used above, other polymers may be used including the synthetic polyesters and polyamides described above. […]

rho/VEGF (V6) mouse = assay: rho/VEGF (V6) mouse, genetic model of wet age-related macular degeneration; type: in vivo, mice; conditions: 8 weeks after injection
From the text: Referring now to FIG. 49 in shown the in vivo effects of microparticle formulations in both the CNV and rho/VEGF model over time. DEAH (SP6001)-336 PBAE nanoparticle formulation made as described previously (“DEAH” disclosed as SEQ ID NO: 2484). […] (Middle) and (Bottom) A genetic model of wet form of age-related macular degeneration in mice used to test long-term effect of microparticles. […] While PLGA is used to form the microparticles used above, other polymers may be used including the synthetic polyesters and polyamides described above. In certain embodiments, blends of these polymer are combined with PLGA to form microparticles with differing environmental sensitivity and release properties; (a) the effect of microparticle (SP-6001) in CNV model mouse; (b) the effect of microparticle (SP-6001) in rho/VEGF (V6) mouse, 1 week after injection; and (c) the effect of microparticle (SP-6001) in rho/VEGF (V6) mouse, 8 weeks after injection.

endothelial cells [3] = assay: Anti-proliferative and anti-migratory activity of free peptides on endothelial cells; type: cell-based
From the text: Several classes of peptides have been developed that show either anti-proliferative or anti-migratory activity or both on endothelial cells. These peptides appear to function through distinct mechanisms of action and have been tested both in vitro and in vivo in tumor xenografts and in ocular mouse models.
(§1) It is believed that this peptide is the first antilymphangiogenic peptide agent.

[4] = test system: lymphatic endothelial cells; assay: Anti-proliferative and anti-migratory activity of free peptides on lymphatic endothelial cells; type: cell-based
From the text: as §1

Substance | inhibition of endothelial cell proliferation (endothelial cells [1]) | anti-proliferative and anti-migratory activity (endothelial cells [3]) | also measured
LRRFSTMPFMFCNINNVCNF [Pentastatin] | enhanced the ability of the peptides to inhibit the proliferation of endothelial cells |  | 
EIELVEEEPPF [SP6001, 11-mer anti-angiogenic peptide derived from the serpin domain of DEAH box polypeptide] |  |  | tumor xenograft growth [2]: significant inhibition; angiogenesis in the eye (CNV laser mouse model): significantly reduced angiogenesis; inhibition of angiogenesis (rho/VEGF (V6) mouse): no longer inhibits angiogenesis
LRRFSTMPFMF-Abu-NINNV-Abu-NF (LRRFSTMPFMF[Abu]NINNV[Abu]NF; listed as Homo sapiens) [SP2012] |  | highly potent anti-proliferative and anti-migratory | 
LLRISLLLIESWLE [SP5033] |  | anti-proliferative and anti-migratory activity | anti-proliferative and anti-migratory activity [4]: anti-proliferative and anti-migratory activity
NGRKACLNPASPIVKKIIEKMLNS [Chemokinostatin] | enhanced the ability of the peptides to inhibit the proliferation of endothelial cells |  | 
